The source of these data is patent publication US5136076A, “Process for the preparation of amino acid-derived enatiomeric compounds” (Societe Civile Bioprojet, priority 1987, dated 1992).

Structures are written as SMILES.

In series [1] the test system is mouses. The series is described as follows: Subacute toxicity, 3 weeks oral. The conditions noted are these: 2 g/kg/day oral, mouse, as opposed to control. In kind it is in vivo. As for the experimental part: Compound (1) was administered during 3 weeks to mouses at an oral dose of 2 g/kg/day.
Moreover, no signs of tolerance, habituation or other weaning phenomenon were observed on animals submitted to a reversibility test after treatment.

In a further series the test system is enkephalinase. The series can be described thus: Enkephalinase inhibition in vivo in mouse striatum (Table 1 (b)). The following applies: 30 mn after i.v. administration, 30 min. The source says: (§1) Dosage of `enkephalinase` activity and angiotensin convertase (ACE) activity with determination of the effect of inhibitors both in vitro and on mouses in vivo: inhibition of the same enzymes and protection of natriuretic auricular factor.
ENKEPHALINASE AND ACE INHIBITING ACTIVITIES IN IN VITRO AND IN VIVO STRIATUM
(b)Activity measured in mouse striatum 30 mn after i.v. administration
according to LlorensCortes et al., Eur. J. Pharmacol., 1985, 119, 183.

Another series has as its system renal enkephalinase. The series is described as follows: Inhibition of linking between Acetorphan and renal enkephalinase after oral administration (Table 2 (a)). The class given is in vivo, mouse. The following applies: kidney, 0.3 mg/kg oral, 90 minutes after administration.
Source text: as §1
ENKEPHALINASE INHIBITING ACTIVITIES AND PROTECTION OF NATRIURETIC AURICULAR FACTOR (ANF) IN THE KIDNEY IN VIVO
(a) Inhibition of the linking between […] Acetorphan and renal
enkephalinase measured according to S. de la Baume, M. Tuong, F. Brion, J
C. Schwartz (J.P.E.T. 1988, forthcoming) 90 minutes after oral
administration of compounds 1 or 2 at a dose of 0.3 mg/kg.

For series [2], the system named is mouses. The series can be described thus: Analgesic activity, plate jump test at 55° C. In kind it is in vivo, mouse. As for the experimental part: III. ANALGESIC ACTIVITIES MEASURED ON PLATE JUMP TEST AT 55° C. AFTER ADMINISTRATION TO MOUSES.
(Eddy and Leimbach, J. Pharmacol. Exp. Ther. 1953, 107 385).

Another series has as its system cats. The series is described as follows: Anti-inflammatory activity in experimental cholecystitis. In kind it is in vivo, cat. The following applies: 3 mg/kg i.v.
The next series concerns healthy volunteers. The series can be described thus: Clinical pharmacology: diuresis and natriuresis. The following applies: 30 mg oral, between 2 and 8 hours after administration, p<0.05. The class given is in vivo, human. How it is done:
(§2) With healthy volunteers (9 male subjects) enkephalinase and natriuretic auricular factor (ANF) plasma levels as well as diuresis and natruresis are measured after oral administration of either a placebo, or (S) acetorphan.

A further series concerns plasma enkephalinase. The series is described as follows: Clinical pharmacology: plasma enkephalinase. In kind it is in vivo, human. The conditions noted are these: 30 mg oral, 1 hr after administration, vs placebo, p<0.001. As for the experimental part:
as §2

In a further series the test system is plasma ANF. The series is described as follows: Clinical pharmacology: plasma natriuretic auricular factor (ANF). In kind it is in vivo, human. The following applies: 30 mg oral, 1 hr after administration, vs placebo, p<0.05. How it is done:
as §2

Take `CC(=O)SCC(Cc1ccccc1)C(=O)NCC(=O)OCc1ccccc1` (single isomer, unassigned) [Compound (1)]: the “Organ weight and pathological examination” value with mouses [1] was “no difference as opposed to control”. The “Enkephalinase In vivo(b) (DE50, mg/kg)” value in the series with enkephalinase came out at 0.8 mg/kg. Further, the “Inhibition of enkephalinase (%)” value in the series on renal enkephalinase is 15 ± 6%. The “Reaction time” value worked out at 85 ± 5 s with mouses [2] (5 mg/kg i.v., 20' before test); 80 ± 6 s with mouses [2] (30 mg/kg oral, 1 h before test); 140 ± 10 s in the series on mouses [2] (100 mg/kg oral, 1 h before test). In addition, in the series on cats, the “hypersecretion induced by an inflammation of the gall bladder” value is “significatively decreases hypersecretion”.
Regarding `CC(=O)SCC(Cc1ccccc1)C(=O)NCC(=O)OCc1ccccc1` (single isomer, unassigned) [Compound (2)], the “Enkephalinase In vivo(b) (DE50, mg/kg)” value in the series on enkephalinase turned out to be 0.4 mg/kg. Besides, in the series with healthy volunteers, the increase of diuresis was 42% and the increase of natriuresis stood at 46%. Moreover, the “Inhibition of enkephalinase (%)” value in the series on renal enkephalinase is 54 ± 6%. Further, the “inhibition of plasma enkephalinase” value in the series on plasma enkephalinase was found to be 62%. For the same molecule, the “Reaction time” value in the series with mouses [2] (30 mg/kg oral, 1 h before test) turned out to be 75 ± 5 s. The “increase of plasma ANF” value in the series on plasma ANF is 50%.
